{"source": "paper PMC9102502", "about": "“The Influence of Selected Antipsychotic Drugs on Biochemical Aspects of Alzheimer’s Disease” (International Journal of Molecular Sciences, 2022)", "key": {"BuChE [1]": {"molecular_target": "T1, BuChE (Homo sapiens, UniProt P06276)", "T1 sequence (P06276 29-602)": "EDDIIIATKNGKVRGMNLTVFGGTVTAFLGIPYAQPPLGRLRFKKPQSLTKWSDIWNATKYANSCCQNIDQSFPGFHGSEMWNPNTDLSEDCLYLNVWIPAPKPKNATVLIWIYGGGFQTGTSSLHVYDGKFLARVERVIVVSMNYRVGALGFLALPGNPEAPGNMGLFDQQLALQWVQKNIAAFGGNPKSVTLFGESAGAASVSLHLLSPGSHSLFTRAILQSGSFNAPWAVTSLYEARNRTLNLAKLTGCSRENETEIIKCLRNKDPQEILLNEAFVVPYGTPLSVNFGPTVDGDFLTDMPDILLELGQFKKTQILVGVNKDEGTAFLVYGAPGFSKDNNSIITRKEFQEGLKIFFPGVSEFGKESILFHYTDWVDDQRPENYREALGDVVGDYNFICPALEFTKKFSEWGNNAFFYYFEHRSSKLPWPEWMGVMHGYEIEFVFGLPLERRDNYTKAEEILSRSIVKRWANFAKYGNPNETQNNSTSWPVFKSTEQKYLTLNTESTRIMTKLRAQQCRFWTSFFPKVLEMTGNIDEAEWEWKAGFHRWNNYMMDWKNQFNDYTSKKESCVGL", "experiment": "Kinetic parameters of enzymatic reaction (Hanes–Woolf), BuChE", "assay_type": "biochemical", "parameters": "The solution of plasma 200-fold diluted with 0.9% NaCl; from tissue; host or cells: citrated plasma from blood of healthy human donors", "protocol": "Kinetic parameters were obtained on the basis of three individual experiments carried out on different biological materials. For this purpose, various concentrations of substrates (ATC and BTC) were used in experiments. The type of inhibition and kinetic parameters of enzymatic reactions were obtained by linear regression using the Hanes–Woolf equations.\n(§1) AChE SI (selectivity index) was calculated by using the following formula: SI = IC50 of BuChE/IC50 of AChE. However, BuChE SI was defined as IC50 of AChE/IC50 of BuChE. Maximal velocity (Vmax) and the Michaelis constant (Km) were calculated with the use of linear regression—according to the Hanes–Woolf plot."}, "BuChE [2]": {"tested_on": "BuChE", "details": "read-out: IC50 BuChE, cited from earlier work"}, "AChE [3]": {"tested_on": "AChE", "details": "read-out: IC50 AChE, cited from earlier work"}, "astrocytes": {"tested_on": "astrocytes", "experiment": "WST-1 viability under AAPH-induced oxidative stress, astrocytes", "assay_type": "cell-based, human", "protocol": "(§2) WST-1 assay (Takara, Takara Bio Europe, Saint-Germain-en-Laye, France) was used to assess the effects of antipsychotics on the growth of HUVEC and astrocytes. The experiments were conducted as described previously. HUVEC were seeded at a density of 7500 cells, and astrocytes at 5000 cells per well on 96-well microplates and cultured for 24 h followed by treatment with compounds at ½ × TPCmax and TPCmax or pure medium as a control (v = 100 μL) for another 24 h (37 °C, 5% CO2). Subsequently, the cells were washed with culture medium (100 μL) and WST-1 reagent diluted in medium (10 μL of reagent + 90 μL of medium) was added. The plates were incubated at 37 °C in 5% CO2 for another 90 min for HUVEC and 60 min for astrocytes. The absorbance was read at 450 nm using a microplate reader (iMARK, Bio-Rad, Hercules, CA, USA). The cells viability was expressed as a percentage of the control samples which constituted 100% viability.\n(§3) Moreover, the WST-1 assay was used to evaluate potential protective effects of antipsychotics on the growth of HUVEC and astrocytes under conditions of AAPH-induced oxidative stress. The experimental conditions were the same as in viability studies. AA at the final concentration of 10 μg/mL was used as an antioxidant control. After reaching the confluence, the antipsychotics were added at concentrations equaling ½ × TPCmax and TPCmax. After 1 h incubation under standard conditions, 50 μL AAPH was added to the wells containing tested compounds or AA. The AAPH concentration was chosen on the basis of preliminary experiments—17.5 mmol/L in HUVEC experiments, and 15.0 mmol/L in the case of astrocytes."}, "[4]": {"molecular_target": "T2, recombinant human β-amyloid (1–42) (Homo sapiens, UniProt P05067)", "T2 construct": "recombinant human β-amyloid (1–42; ultrapure); purchased Sigma-Aldrich (St. Louis, MO, USA)", "T2 sequence (P05067 672-713 limits assumed)": "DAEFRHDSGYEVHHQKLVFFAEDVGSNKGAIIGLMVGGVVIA", "experiment": "Beta-amyloid aggregation, Thioflavin T fluorescence", "assay_type": "biochemical", "details": "10 μg/L; time range from 10 min to 24 h incubation", "protocol": "Aβ42 peptide was dissolved in DMSO and left to hydrate for a few minutes. The solution was centrifuged at 10,000 rpm for 5 min at 4 °C to separate any precipitated material. The solution at a concentration of 220 μmol/L was stored in small aliquots at a temperature of −30 °C and before each experiment it was restored at 37 °C for 15 min. Test samples containing Aβ42 solution at the final concentration of 20 μmol/L was incubated with antipsychotics at concentrations equaling their TPC and 1/2 × TPC (v = 10 µL). The final volume of the test samples was 100 μL. The positive control constituted a sample of Aβ42 peptide, whereas the negative control contained tannic acid at the final concentrations of 0.1 µmol/L and 10 µmol/L. The fibrillation reaction was set up by addition of thioflavin ThT dye at a concentration of 5 µmol/L. The fluorescence intensity was measured at room temperature with Ex/Em = 440 nm/484 nm (Synergy H1; BioTek, Winooski, VT, USA). The measurements of fluorescence intensity expressed as relative fluorescence units (RFU) were taken at 10, 30, 60 and 90 min and then after 24 and 48 h. The fluorescence intensity measured for control equaled 100% of Aβ aggregation and it was used to estimate the inhibitory properties of the tested antipsychotics."}, "[5]": {"molecular_target": "T3, human plasma butyrylcholinesterase (Homo sapiens, UniProt P06276)", "T3 construct": "The solution of plasma 200-fold diluted with 0.9% NaCl; from tissue; host or cells: citrated plasma from blood of healthy human donors", "T3 sequence (P06276 29-602)": "as the sequence (P06276 29-602) above", "experiment": "BuChE inhibition, modified Ellman's method", "assay_type": "biochemical", "details": "control 0.302 ± 0.029 A/min", "protocol": "(§4) The activity of both cholinesterases (AChE and BuChE) were assessed spectrophotometrically according to the Ellman’s method with some modifications by Worek et al.. This test development included experimental determination of the optimal testing conditions. For all measurements, 37 °C was used as the best temperature for enzymatic determinations in material of human origin.\n(§5) The solution of plasma 200-fold diluted with 0.9% NaCl and solution of hemolyzed erythrocytes diluted 400-fold with 0.9% were incubated (37 °C, 15 min) with 5 μL DTNB (0.01 mol/L) and 10 μL tested compound at a wider range of concentration than the therapeutic range in order to assess the overall effect of the compound on human esterases (AChE and BuChE). The controls without antipsychotics, containing only DTNB and diluted plasma or diluted solution of hemolyzed erythrocytes, were prepared. […] The final volume of a sample was 500 μL. […] The maximal velocity of the reaction was determined on the basis of changes in absorbance over time.\nas §1"}, "HUVEC cells": {"tested_on": "HUVEC cells", "experiment": "WST-1 viability under AAPH-induced oxidative stress, HUVEC", "assay_type": "cell-based, human", "details": "½ × TPC (bromperidol 12.5 μg/L, quetiapine 200 μg/L); AAPH 17.5 mmol/L; relative to pure medium control", "protocol": "as §2, §3"}, "AChE [6]": {"molecular_target": "AChE (Homo sapiens, UniProt P22303)", "sequence (P22303 32-617 isoform P22303-2 limits assumed)": "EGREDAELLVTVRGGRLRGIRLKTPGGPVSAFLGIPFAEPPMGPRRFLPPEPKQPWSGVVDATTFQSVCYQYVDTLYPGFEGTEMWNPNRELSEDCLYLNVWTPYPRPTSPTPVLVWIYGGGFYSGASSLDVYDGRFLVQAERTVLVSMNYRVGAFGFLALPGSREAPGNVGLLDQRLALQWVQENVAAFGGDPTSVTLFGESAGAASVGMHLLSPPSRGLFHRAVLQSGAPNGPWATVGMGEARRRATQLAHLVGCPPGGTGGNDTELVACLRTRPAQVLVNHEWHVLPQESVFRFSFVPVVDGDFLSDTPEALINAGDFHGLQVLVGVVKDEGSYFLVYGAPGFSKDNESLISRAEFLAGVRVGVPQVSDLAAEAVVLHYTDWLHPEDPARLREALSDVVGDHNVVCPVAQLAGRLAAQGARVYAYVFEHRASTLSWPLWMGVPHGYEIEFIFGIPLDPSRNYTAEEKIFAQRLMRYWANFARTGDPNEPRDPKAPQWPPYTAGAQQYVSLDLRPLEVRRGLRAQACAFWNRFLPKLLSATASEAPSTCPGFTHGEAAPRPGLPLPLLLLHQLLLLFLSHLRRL", "experiment": "Synergism of antipsychotics with donepezil/rivastigmine (binary mixtures), AChE", "details": "ComboSyn"}, "BuChE [7]": {"molecular_target": "T1, BuChE", "experiment": "Synergism of antipsychotics with donepezil/rivastigmine (binary mixtures), BuChE", "details": "ComboSyn"}, "[8]": {"molecular_target": "T4, human erythrocyte acetylcholinesterase (Homo sapiens, UniProt P22303)", "T4 construct": "solution of hemolyzed erythrocytes diluted 400-fold; from tissue; host or cells: hemolyzed erythrocytes from blood of healthy human donors", "T4 sequence (P22303 32-617 isoform P22303-2 limits assumed)": "as above", "experiment": "AChE inhibition, modified Ellman's method", "assay_type": "biochemical", "details": "control 0.258 ± 0.016 A/min", "protocol": "as §4, §5, §1"}, "[9]": {"details": "reference values according to the literature ref 28"}, "[10]": {"details": "reference values according to the literature ref 31"}, "[11]": {"details": "reference values according to the literature ref 32"}, "[12]": {"details": "reference values according to the literature ref 33"}, "[13]": {"details": "rivastigmine 5 μmol/L + antipsychotic at TPCmax"}}, "note": "Where two headings read alike, the source gives them in different places.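 For CI (combination index), AChE in this document: antipsychotic concentration kept fixed across all measurements, selected from estimated therapeutic plasma levels.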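 For CI (combination index), BuChE in this document: combination index derived by median-effect analysis of combined drug effects on the cholinesterase, with values below 1 meaning synergism, exactly 1 additivity and above 1 antagonism.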", "data": [{"smiles": "CCN(C)C(=O)Oc1cccc([C@H](C)N(C)C)c1", "note": "[Rivastigmine, rivastigmine]", "values": [{"measurement": "Vmax(i) BuChE", "setting": "BuChE [1]; compound at its IC50", "result": "0.122 ± 0.003", "unit": "A/min"}, {"measurement": "type of inhibition of BuChE", "setting": "BuChE [1]; from Km(i), Vmax(i) vs Km, Vmax, mixed inhibition", "result": "noncompetitively"}, {"measurement": "IC50", "setting": "BuChE [2]; [9]", "result": "[…]"}, {"measurement": "IC50", "setting": "BuChE [2]; [10]", "result": "[…]"}, {"measurement": "IC50", "setting": "BuChE [2]; [11]", "result": "[…]"}, {"measurement": "IC50", "setting": "BuChE [2]; [12]", "result": "[…]"}, {"measurement": "IC50", "setting": "AChE [3]; [9]", "result": "[…]"}, {"measurement": "IC50", "setting": "AChE [3]; [10]", "result": "[…]"}, {"measurement": "IC50", "setting": "AChE [3]; [11]", "result": "[…]"}, {"measurement": "IC50", "setting": "AChE [3]; [12]", "result": "[…]"}]}, {"smiles": "O=C(CCCN1CCC(n2c(O)nc3ccccc32)CC1)c1ccc(F)cc1", "note": "[Benperidol, benperidol]", "values": [{"measurement": "astrocyte viability compared with the control (pure AAPH)", "setting": "astrocytes; benperidol 5 and 10 μg/L, penfluridol 12.5 μg/L, pimozide 15 μg/L, promazine 25 and 50 μg/L", "result": "statistically significant increase"}, {"measurement": "astrocyte viability under AAPH", "setting": "astrocytes; ½ × TPC (benperidol 5 μg/L, bromperidol 12.5 μg/L), AAPH 15 mmol/L", "result": 81.9, "unit": "%"}, {"measurement": "inhibition of Aβ", "setting": "[4]", "result": "42.1–53.3%"}, {"measurement": "BuChE reaction velocity", "setting": "[5]; 75 µg/L", "result": "0.283 ± 0.029", "unit": "A/min"}, {"measurement": "BuChE reaction velocity", "setting": "[5]; 100 µg/L", "result": "0.279 ± 0.021", "unit": "A/min"}, {"measurement": "viability of HUVEC under AAPH", "setting": "HUVEC cells", "result": 82.9, "unit": "%"}, {"measurement": "CI (combination index), AChE", "setting": "AChE [6]; donepezil 0.005 μmol/L + antipsychotic at TPCmax, CI < 1 synergism, > 1 antagonism", "result": 0.83}, {"measurement": "CI (combination index), AChE", "setting": "AChE [6]; donepezil 0.01 μmol/L + antipsychotic at TPCmax", "result": 1.09}, {"measurement": "CI (combination index), AChE", "setting": "AChE [6]; donepezil 0.02 μmol/L + antipsychotic at TPCmax", "result": 1.04}, {"measurement": "CI (combination index), AChE", "setting": "AChE [6]; donepezil 0.05 μmol/L + antipsychotic at TPCmax", "result": 1.02}, {"measurement": "CI (combination index), AChE", "setting": "AChE [6]; donepezil 0.1 μmol/L + antipsychotic at TPCmax", "result": 1.24}, {"measurement": "CI (combination index), AChE", "setting": "AChE [6]; [13]", "result": 0.31}, {"measurement": "CI (combination index), AChE", "setting": "AChE [6]; rivastigmine 10 μmol/L + antipsychotic at TPCmax", "result": 0.44}, {"measurement": "CI (combination index), AChE", "setting": "AChE [6]; rivastigmine 15 μmol/L + antipsychotic at TPCmax", "result": 0.48}, {"measurement": "CI (combination index), AChE", "setting": "AChE [6]; rivastigmine 25 μmol/L + antipsychotic at TPCmax", "result": 0.57}, {"measurement": "CI (combination index), AChE", "setting": "AChE [6]; rivastigmine 40 μmol/L + antipsychotic at TPCmax", "result": 0.62}, {"measurement": "CI (combination index), AChE", "setting": "AChE [6]; rivastigmine 50 μmol/L + antipsychotic at TPCmax", "result": 0.63}, {"measurement": "CI (combination index), AChE", "setting": "AChE [6]; rivastigmine 75 μmol/L + antipsychotic at TPCmax", "result": 0.66}, {"measurement": "CI (combination index), AChE", "setting": "AChE [6]; rivastigmine 100 μmol/L + antipsychotic at TPCmax", "result": 0.65}, {"measurement": "CI (combination index), BuChE", "setting": "BuChE [7]; donepezil 2 μmol/L + antipsychotic at TPCmax", "result": 0.40}, {"measurement": "CI (combination index), BuChE", "setting": "BuChE [7]; donepezil 5 μmol/L + antipsychotic at TPCmax", "result": 0.50}, {"measurement": "CI (combination index), BuChE", "setting": "BuChE [7]; donepezil 10 μmol/L + antipsychotic at TPCmax", "result": 0.57}, {"measurement": "CI (combination index), BuChE", "setting": "BuChE [7]; donepezil 20 μmol/L + antipsychotic at TPCmax", "result": 0.60}, {"measurement": "CI (combination index), BuChE", "setting": "BuChE [7]; donepezil 50 μmol/L + antipsychotic at TPCmax", "result": 0.69}, {"measurement": "CI (combination index), BuChE", "setting": "BuChE [7]; donepezil 100 μmol/L + antipsychotic at TPCmax", "result": 0.84}, {"measurement": "CI (combination index), BuChE", "setting": "BuChE [7]; rivastigmine 0.05 μmol/L + antipsychotic at TPCmax", "result": 0.27}, {"measurement": "CI (combination index), BuChE", "setting": "BuChE [7]; rivastigmine 0.1 μmol/L + antipsychotic at TPCmax", "result": 0.32}, {"measurement": "CI (combination index), BuChE", "setting": "BuChE [7]; rivastigmine 0.25 μmol/L + antipsychotic at TPCmax", "result": 0.56}, {"measurement": "CI (combination index), BuChE", "setting": "BuChE [7]; rivastigmine 0.5 μmol/L + antipsychotic at TPCmax", "result": 0.91}, {"measurement": "CI (combination index), BuChE", "setting": "BuChE [7]; rivastigmine 0.75 μmol/L + antipsychotic at TPCmax", "result": 0.95}, {"measurement": "CI (combination index), BuChE", "setting": "BuChE [7]; rivastigmine 1 μmol/L + antipsychotic at TPCmax", "result": 1.00}, {"measurement": "CI (combination index), BuChE", "setting": "BuChE [7]; rivastigmine 2.5 μmol/L + antipsychotic at TPCmax", "result": 1.08}, {"measurement": "CI (combination index), BuChE", "setting": "BuChE [7]; [13]", "result": 1.00}, {"measurement": "AChE reaction velocity", "setting": "[8]; 75 µg/L", "result": "0.250 ± 0.015", "unit": "A/min"}, {"measurement": "AChE reaction velocity", "setting": "[8]; 100 µg/L", "result": "0.239 ± 0.014", "unit": "A/min"}]}]}
